Here are results for four compounds from US5476661A, “Compositions for topical application to skin, hair and nails” (Elizabeth Arden Co., Division of Conopco, Inc., priority 1994, dated 1995).

The conditions of data set [1]: cited from earlier work.
In data set [2] the test system is normal human keratinocytes. Nature of the data set: Vitamin D3 metabolites' uptake by keratinocytes (cell associated radioactivity). The format is in vitro ADME. As to conditions: for Uptake by keratinocytes, cell associated radioactivity: 60 picomolar, mean of duplicate; for uptake rate by keratinocytes / skin cells: Table 6 summary. The protocol: Normal human keratinocytes were grown to confluence in Keratinocyte growth medium (KGM) containing 0.15 mM calcium. Medium was changed to fresh medium. The cells were then incubated in duplicate with 10,000 cpm (60 picomolar, or 25 picogram/ml medium) of 25-OH-D3 or 1,25-(OH)2 D3 for various times (0 to 240 minutes). At different time intervals indicated in the Table below, the medium of appropriate wells were aspirated, and the wells were washed three times with a 0.2% bovine serum albumin solution in 50 mM Tris/0.15M sodium chloride buffer pH 7.4. After the wash the cells in the wells were dissolved in 0.1N sodium hydroxide, neutralized with 0.1N hydrochloric acid, mixed with 5 ml of scintillation fluid (Ecolume) and counted in a beta counter. The amount of cpm associated with the cells was calculated as the percent of total cpm added for each time point studied. Data in the table is expressed as cell associated radioactivity as % of total added. Each reported result is a mean of duplicate determinations.

Data set [3] has as its system keratinocytes. The note with it: Bikle et al., cited from earlier work; for conversion in skin / keratinocytes: MacLaughlin et al.
Data set [4] deals with keratinocytes. The note with it: cited from earlier work.
The subject of data set [5] is normal human keratinocytes. Description: DNA synthesis rate (3H-thymidine incorporation) in normal human keratinocytes. The format is cell-based. As to conditions: for activity at 0.001 µM / activity at 0.01 µM / activity at 0.1 µM / activity at 1 µM / minimal effective concentration: Homo sapiens, Keratinocyte; for activity at 1 µM: 1000 nM; for minimal effective concentration: read-out: concentration at which statistically significant cell growth inhibition was consistently observed. From the text:
Initiation of differentiation of keratinocytes is accompanied by inhibition of their growth. The rate of synthesis of DNA determined by the incorporation of radiolabeled substrate [^3 H] thymidine, is an indicator of the rate of growth of the cells. A decrease in DNA synthesis therefore indicates decrease in growth and increase in differentiation of keratinocytes.
Methodology Used for Determining the Rate of DNA Synthesis in Keratinocytes After Treatment With Various Actives
1. Normal human keratinocytes isolated from neonatal foreskins by trypsin treatment were grown in DME medium/10% fetal calf serum in the presence of irradiated 3T3 mouse fibroblasts for establishing dividing keratinocyte colonies. Keratinocytes were grown under the above condition until their third passage.
2. For the experiments, third passage keratinocytes were plated into a serum-free keratinocyte growth medium (KGM; obtained from Clonetics Corporation, San Diego, Calif.) containing 0.15 mM calcium. 20,000 to 30,000 cells were plated into each well of 24 well cell culture plates and grown for 5 days, until the cells reach about 80% confluence.
3. Medium was changed to fresh medium and the various test materials were added to the medium from an ethanolic stock solution (10 A.M.). The final ethanol concentration in the cultures was kept below 0.2%. Control cultures received no tested material but were dosed with 0.2% ethanol. Each compound or combination was tested in three separate wells. By 4 P.M., 1 uCi of ^3 H-thymidine (AmerSham Corp., Sp activity 40 Ci/mmol) was added to the 1 ml medium in each well. The cells were incubated overnight and 24 hours later (10 A.M. next day) the amount of ^3 H-thymidine associated with the cellular DNA of keratinocytes was assessed as described below.
4. The medium was aspirated, and the wells washed with 1 ml phosphate-buffered saline. The DNA and proteins of the cells in the plate were then precipitated by adding 1 ml of ice-cold 10% trichloroacetic acid (TCA). The plates were left on ice for 30 minutes to complete the precipitation process. TCA was then aspirated and each well was then washed four times with 5% TCA. The plates were then dried on a filter pad and the cells in the wells were dissolved in 0.5 ml of 0.1N sodium hydroxide. The sodium hydroxide was then neutralized using 0.1N hydrochloric acid and the solution (1 ml total volume) was then transferred to a scintillation vial. 100 ul samples from each vial were used for protein assay using BCA protein assay reagent obtained from Pierce Chemical Company. 8 ml of a scintillation fluid (Ecolume) was added to the rest of the solution in the vial, and the vials were counted in a scintillation counter to determine the amount of radioactivity in each vial. The DNA synthesis rate was then calculated as cpm ^3 H thymidine incorporated into total cellular DNA/microgram of cell protein for each individual well. Mean and standard deviation for each group was also calculated.
5. All lipids listed in Tables 1-5 below were synthesized in-house. 25-OH-D3 and 1,25-(OH)2 D3 were obtained from Hoffman La Roche. Vitamin D3 was obtained from Sigma.

The subject of data set [6] is HL-60 cells (human myelocytic leukemia cells). As to conditions: cited from earlier work.

Structures are written as SMILES. Entries after “also recorded” stand apart in the source; their conditions may differ. Where two headings read alike, the source gives them in different places.

In the case of `C=C1/C(=C\C=C2/CCC[C@]3(C)[C@@H]([C@H](C)CCCC(C)(C)O)CC[C@@H]23)C[C@@H](O)C[C@@H]1O` [1,25-(OH)2 D3, 1,25-dihydroxycholecalciferol], in data set [1] (higher levels of 1,25-(OH)2 D3 in blood), the “toxicity of higher blood levels” value is “increase blood calcium levels and may cause heart problems, muscle weakness and contraction which may be fatal”. In addition, the “blood level after topical application” value in data set [1] (in vivo) is recorded as “increases blood level of 1,25-(OH)2 D3”. Besides, the “Uptake by keratinocytes, cell associated radioactivity” value (from here on “Uptake by keratinocytes”) in data set [2] (0 minutes) is reported as 0.8 % of total added; in data set [2] (2 minutes) it was 2.7 % of total added; in data set [2] (5 minutes), 4.2 % of total added; in data set [2] (10 minutes) it was 13.0 % of total added; in data set [2] (15 minutes) it was 10.0 % of total added; in data set [2] (30 minutes), 20.0 % of total added. The entries for the “Uptake by keratinocytes” value in data set [2] (60 minutes), in data set [2] (120 minutes) and in data set [2] (240 minutes) were 15.6 % of total added, 26.2 % of total added and 30.8 % of total added, respectively. Further, in data set [2], the “uptake rate by keratinocytes / skin cells” value was “rapidly taken up”. Moreover, the “catabolism to inactive metabolites by keratinocytes” value with keratinocytes [3] was “catabolized to inactive metabolites rapidly”. In addition, in the data set on keratinocytes [3] (exogenously added), the “degradation within skin cells” value is reported as “rapidly degraded within the skin cells”. The “effect on DNA synthesis and differentiation of keratinocytes” value with keratinocytes [4] (exogenous or endogenous, Pillai et al., Hashimoto et al.) is “inhibits DNA synthesis (i.e., inhibits growth) and induces differentiation of keratinocytes”. The activity at 0.001 µM in data set [5] (read-out: DNA synthesis of keratinocytes, Table 1, compound alone, 1 nM, Test 1) came out at 115 ± 7.7%. For the same compound, the activity at 0.01 µM in data set [5] (read-out: DNA synthesis of keratinocytes, Table 1, compound alone, 10 nM, Test 1) amounted to 108 ± 8.7%; in data set [5] (read-out: DNA synthesis of keratinocytes, Table 1, compound alone, 10 nM, Test 2), 91.9 ± 5.3%; in data set [5] (read-out: DNA synthesis of keratinocytes, Table 1, compound alone, 10 nM, Test 3), 91.8 ± 4.5%; in data set [5] (read-out: DNA synthesis of keratinocytes, Table 4, 10 nM vitamin D3 or metabolite, no ceramide), 91.8 ± 4.6%. Besides, the activity at 0.1 µM was determined as 102 ± 16.7% in data set [5] (read-out: DNA synthesis of keratinocytes, Table 1, compound alone, 100 nM, Test 1, * = statistically significant growth inhibition); 86 ± 7.7% in data set [5] (read-out: DNA synthesis of keratinocytes, Table 1, compound alone, 100 nM, Test 2, * = statistically significant growth inhibition); 90.3 ± 9.5% in data set [5] (read-out: DNA synthesis of keratinocytes, Table 1, compound alone, 100 nM, Test 3); 90.3 ± 9.5% in data set [5] (read-out: DNA synthesis of keratinocytes, Table 4, 100 nM vitamin D3 or metabolite, no ceramide). The activity at 1 µM in data set [5] (read-out: DNA synthesis of keratinocytes, Table 1, compound alone, Test 1, * = statistically significant growth inhibition) is 71.5 ± 2.9%; in data set [5] (read-out: DNA synthesis of keratinocytes, Table 1, compound alone, Test 2, * = statistically significant growth inhibition), 56.3 ± 14.1%. In addition, in data set [5], the minimal effective concentration was found to be 1 µM.
With `C=C1CC[C@H](O)C/C1=C/C=C1\CCC[C@]2(C)[C@@H]([C@H](C)CCCC(C)(C)O)CC[C@@H]12` [Formula 25-OH--D3, 25-hydroxycholecalciferol], the “Uptake by keratinocytes” value in data set [2] (0 minutes) was 2.5 % of total added; in data set [2] (2 minutes), 3.2 % of total added; in data set [2] (5 minutes) it was 0.3 % of total added; in data set [2] (10 minutes) it was 3.4 % of total added; in data set [2] (15 minutes) it was 8.3 % of total added; in data set [2] (30 minutes) it was 8.1 % of total added. The “Uptake by keratinocytes” value is on record as 6.2 % of total added in data set [2] (60 minutes), 6.8 % of total added in data set [2] (120 minutes) and 9.8 % of total added in data set [2] (240 minutes). Also, the “uptake rate by keratinocytes / skin cells” value in data set [2] is reported as “slower uptake; also recorded: taken up by keratinocytes at a substantially slower rate than 1,25-(OH)2 D3”. For the same compound, the “conversion in skin / keratinocytes” value in the data set with keratinocytes [3] is on record as “converted to 1,25-(OH)2 D3 in keratinocyte cultures”. Besides, the activity at 0.01 µM in data set [5] (Table 1, compound alone, 10 nM, Test 2, read-out: DNA synthesis of keratinocytes) came out at 86.5 ± 9%; in data set [5] (Table 1, compound alone, 10 nM, Test 3, read-out: DNA synthesis of keratinocytes), 95.2 ± 6.8%; in data set [5] (Table 3, 25-OH-D3 alone, 10 nM, read-out: DNA synthesis of keratinocytes), 97.2 ± 5.92%. The activity at 0.1 µM in data set [5] (Table 1, compound alone, 100 nM, Test 1, * = statistically significant growth inhibition, read-out: DNA synthesis of keratinocytes) turned out to be 86.5 ± 5.4%; in data set [5] (Table 1, compound alone, 100 nM, Test 2, * = statistically significant growth inhibition, read-out: DNA synthesis of keratinocytes) it was 79.1 ± 2.6%; in data set [5] (Table 3, 25-OH-D3 alone, 100 nM, read-out: DNA synthesis of keratinocytes), 86.5 ± 5.47%; in data set [5] (Table 5, 100 nM 25-OH-D3, no ceramide, read-out: DNA synthesis of keratinocytes), 88.5 ± 7.2%. For the same compound, the activity at 1 µM in data set [5] (Table 1, compound alone, Test 2, * = statistically significant growth inhibition, read-out: DNA synthesis of keratinocytes) stood at 78.9 ± 5.4%; in data set [5] (Table 3, 25-OH-D3 alone, read-out: DNA synthesis of keratinocytes) it was 67.8 ± 5.92%. For the same compound, the activity at 0.001 µM worked out at 99.3 ± 1.91% in data set [5] (Table 3, 25-OH-D3 alone, 1 nM (second line), read-out: DNA synthesis of keratinocytes) and 100 ± 4.71% in data set [5] (Table 3, 25-OH-D3 alone, first line, concentration printed as 1 nM, read-out: DNA synthesis of keratinocytes). Besides, the minimal effective concentration in data set [5] (Table 1 summary, compound alone, only at this concentration) amounted to 1 µM.
For the compound `CC1=C(/C=C/C(C)=C/C=C/C(C)=C/C(=O)O)C(C)(C)CCC1` [retinoic acid], the keratinocyte differentiation result in the data set on keratinocytes [4] is listed as “prevents differentiation of keratinocytes”. In data set [6], the HL-60 cell differentiation result was “induces differentiation of HL-60 cells”.
In the case of `C=C1CC[C@H](O)C/C1=C/C=C1\CCC[C@]2(C)[C@@H]([C@H](C)CCCC(C)C)CC[C@@H]12` [vitamin D3], the “conversion in skin / keratinocytes” value with keratinocytes [3] is “nor is it converted in the skin to 25-OH-D3 derivative”. Moreover, the keratinocyte prodifferentiating activity entry in the data set with keratinocytes [4] (applied topically to skin, MacLaughlin et al.) is given as “neither has keratinocyte prodifferentiating activity”. Besides, the “statistically significant growth inhibition” value in data set [5] (Table 4 summary, vitamin D3 alone) is on record as “does not show statistically significant growth inhibition”.
